ChEMBL document CHEMBL4229385, “Study of the structure-activity relationship of polymyxin analogues” (2018)
In brackets after ≈: the same amount, converted by molar mass. Where a SMILES comes first, the peptide text is derived from it. Bridges are numbered along the chain shown (N, C = ends). [ ]: non-standard residue; d: D form. The star is where a group is joined. Benzoyl(4-Ph) = O=C(c1ccc(-c2ccccc2)cc1)*; Bip = N[C@@H](Cc1ccc(-c2ccccc2)cc1)C(=O)O; Octanoyl = CCCCCCCC(=O)*; Dab = NCC[C@H](N)C(=O)O

Key:
Format in all cases: functional
Pseudomonas aeruginosa [1] = assay: Antibacterial activity against multidrug-resistant Pseudomonas aeruginosa KUB2705 by agar dilution method
Pseudomonas aeruginosa [2] = assay: Antibacterial activity against amikacin/ciprofloxacin-resistant Pseudomonas aeruginosa KUB2704 by agar dilution method
Pseudomonas aeruginosa [3] = assay: Antibacterial activity against amikacin/imipenem-resistant Pseudomonas aeruginosa KUB2703 by agar dilution method
Pseudomonas aeruginosa [4] = assay: Antibacterial activity against Pseudomonas aeruginosa E-2 by agar dilution method
Pseudomonas aeruginosa [5] = assay: Antibacterial activity against Pseudomonas aeruginosa PAO1 by agar dilution method

Compound	MIC (Pseudomonas aeruginosa [1])	MIC (Pseudomonas aeruginosa [2])	MIC (Pseudomonas aeruginosa [3])	MIC (Pseudomonas aeruginosa [4])	MIC (Pseudomonas aeruginosa [5])
COLISTIN	4 µg/mL	4 µg/mL	2 µg/mL	2 µg/mL	4 µg/mL
CCCCC/C=C\C/C=C\CCCCCCCC(=O)N[C@@H](CCN)C(=O)N[C@H](C(=O)N[C@@H](CCN)C(=O)N[C@H]1CCNC(=O)[C@H]([C@@H](C)O)NC(=O)[C@H](CCN)NC(=O)[C@H](CCN)NC(=O)[C@H](CC(C)C)NC(=O)[C@@H](CC(C)C)NC(=O)[C@H](CCN)NC1=O)[C@@H](C)O	> 16 µg/mL	> 16 µg/mL	> 16 µg/mL	16 µg/mL (≈ 12.4 µM)	> 16 µg/mL
C[C@@H](O)[C@@H]1NC(=O)[C@H](CCN)NC(=O)[C@H](CCN)NC(=O)[C@H](Cc2ccccc2)NC(=O)[C@@H](Cc2ccccc2)NC(=O)[C@H](CCN)NC(=O)[C@@H](NC(=O)[C@H](CCN)NC(=O)[C@@H](NC(=O)[C@H](CCN)NC(=O)c2cccc(-c3ccccc3)c2)[C@@H](C)O)CCNC1=O	4 µg/mL (≈ 3.13 µM)	8 µg/mL (≈ 6.26 µM)	8 µg/mL (≈ 6.26 µM)	8 µg/mL (≈ 6.26 µM)	8 µg/mL (≈ 6.26 µM)
CCCCCCCC(=O)N[C@@H](CCN)C(=O)N[C@H](C(=O)N[C@@H](CCN)C(=O)N[C@H]1CCNC(=O)[C@H]([C@@H](C)O)NC(=O)[C@H](CCN)NC(=O)[C@H](CCN)NC(=O)[C@H](CC(C)C)NC(=O)[C@@H](CC(C)C)NC(=O)[C@H](CCN)NC1=O)[C@@H](C)O (Octanoyl-[Dab]T[Dab][Dab][Dab][dL]L[Dab][Dab]T; lactam 4-C)	4 µg/mL (≈ 3.46 µM)	8 µg/mL (≈ 6.92 µM)	16 µg/mL (≈ 13.8 µM)	4 µg/mL (≈ 3.46 µM)	8 µg/mL (≈ 6.92 µM)
C[C@@H](O)[C@@H]1NC(=O)[C@H](CCN)NC(=O)[C@H](CCN)NC(=O)[C@H](Cc2ccc(-c3ccccc3)cc2)NC(=O)[C@@H](Cc2ccccc2)NC(=O)[C@H](CCN)NC(=O)[C@@H](NC(=O)[C@H](CCN)NC(=O)[C@@H](NC(=O)[C@H](CCN)NC(=O)c2cccc(-c3ccccc3)c2)[C@@H](C)O)CCNC1=O	16 µg/mL (≈ 11.8 µM)	> 16 µg/mL	> 16 µg/mL	> 16 µg/mL	16 µg/mL (≈ 11.8 µM)
C[C@@H](O)[C@@H]1NC(=O)[C@H](CCN)NC(=O)[C@H](CCN)NC(=O)[C@H](Cc2ccccc2)NC(=O)[C@@H](Cc2ccccc2)NC(=O)[C@H](CCN)NC(=O)[C@@H](NC(=O)[C@H](CCN)NC(=O)[C@@H](NC(=O)[C@H](CCN)NC(=O)c2ccccc2)[C@@H](C)O)CCNC1=O	2 µg/mL (≈ 1.66 µM)	2 µg/mL (≈ 1.66 µM)	4 µg/mL (≈ 3.33 µM)	2 µg/mL (≈ 1.66 µM)	16 µg/mL (≈ 13.3 µM)
CCCCCCCCC(CCCCCC)C(=O)N[C@@H](CCN)C(=O)N[C@H](C(=O)N[C@@H](CCN)C(=O)N[C@H]1CCNC(=O)[C@H]([C@@H](C)O)NC(=O)[C@H](CCN)NC(=O)[C@H](CCN)NC(=O)[C@H](CC(C)C)NC(=O)[C@@H](CC(C)C)NC(=O)[C@H](CCN)NC1=O)[C@@H](C)O (stereo not given in full)	> 16 µg/mL	> 16 µg/mL	16 µg/mL (≈ 12.6 µM)	16 µg/mL (≈ 12.6 µM)	> 16 µg/mL
CCCCCCCC(=O)N[C@@H](CCN)C(=O)N[C@H](C(=O)N[C@@H](CCN(C)C)C(=O)N[C@H]1CCNC(=O)[C@H]([C@@H](C)O)NC(=O)[C@H](CCN)NC(=O)[C@H](CCN)NC(=O)[C@H](CC(C)C)NC(=O)[C@@H](CC(C)C)NC(=O)[C@H](CCN)NC1=O)[C@@H](C)O	4 µg/mL (≈ 3.38 µM)	4 µg/mL (≈ 3.38 µM)	4 µg/mL (≈ 3.38 µM)	2 µg/mL (≈ 1.69 µM)	4 µg/mL (≈ 3.38 µM)
C[C@@H](O)[C@@H]1NC(=O)[C@H](CCN)NC(=O)[C@H](CCN)NC(=O)[C@H](Cc2ccc(-c3ccccc3)cc2)NC(=O)[C@@H](Cc2ccccc2)NC(=O)[C@H](CCN)NC(=O)[C@@H](NC(=O)[C@H](CCN)NC(=O)[C@@H](NC(=O)[C@H](CCN)NC(=O)c2ccccc2)[C@@H](C)O)CCNC1=O	8 µg/mL (≈ 6.26 µM)	8 µg/mL (≈ 6.26 µM)	8 µg/mL (≈ 6.26 µM)	16 µg/mL (≈ 12.5 µM)	8 µg/mL (≈ 6.26 µM)
C[C@@H](O)[C@@H]1NC(=O)[C@H](CCN)NC(=O)[C@H](CCN)NC(=O)[C@H](Cc2ccccc2)NC(=O)[C@@H](Cc2ccc(-c3ccccc3)cc2)NC(=O)[C@H](CCN)NC(=O)[C@@H](NC(=O)[C@H](CCN)NC(=O)[C@@H](NC(=O)[C@H](CCN)NC(=O)c2ccc(-c3ccccc3)cc2)[C@@H](C)O)CCNC1=O	16 µg/mL (≈ 11.8 µM)	16 µg/mL (≈ 11.8 µM)	16 µg/mL (≈ 11.8 µM)	16 µg/mL (≈ 11.8 µM)	16 µg/mL (≈ 11.8 µM)
CCCCCCCC(=O)N[C@@H](CCN)C(=O)N[C@H](C(=O)N[C@@H](CCN)C(=O)N[C@H]1CCNC(=O)[C@H]([C@@H](C)O)NC(=O)[C@H](CCN)NC(=O)[C@H](CCN)NC(=O)[C@H](CC(C)C)NC(=O)[C@@H](CC(C)C)NC(=O)[C@H](CCN(C)C)NC1=O)[C@@H](C)O	8 µg/mL (≈ 6.76 µM)	> 16 µg/mL	> 16 µg/mL	> 16 µg/mL	> 16 µg/mL
CCCCCCCC(=O)N[C@@H](CCN)C(=O)N[C@H](C(=O)N[C@@H](CCN)C(=O)N[C@H]1CCNC(=O)[C@H]([C@@H](C)O)NC(=O)[C@H](CCN)NC(=O)[C@H](CCN(C)C)NC(=O)[C@H](CC(C)C)NC(=O)[C@@H](CC(C)C)NC(=O)[C@H](CCN)NC1=O)[C@@H](C)O	4 µg/mL (≈ 3.38 µM)	4 µg/mL (≈ 3.38 µM)	4 µg/mL (≈ 3.38 µM)	2 µg/mL (≈ 1.69 µM)	4 µg/mL (≈ 3.38 µM)
C[C@@H](O)[C@@H]1NC(=O)[C@H](CCN)NC(=O)[C@H](CCN)NC(=O)[C@H](Cc2ccc(-c3ccccc3)cc2)NC(=O)[C@@H](Cc2ccccc2)NC(=O)[C@H](CCN)NC(=O)[C@@H](NC(=O)[C@H](CCN)NC(=O)[C@@H](NC(=O)[C@H](CCN)NC(=O)c2ccc(-c3ccccc3)cc2)[C@@H](C)O)CCNC1=O ({Benzoyl(4-Ph)}-[Dab]T[Dab][Dab][Dab][dF][Bip][Dab][Dab]T; lactam 4-C)	16 µg/mL (≈ 11.8 µM)	16 µg/mL (≈ 11.8 µM)	16 µg/mL (≈ 11.8 µM)	16 µg/mL (≈ 11.8 µM)	16 µg/mL (≈ 11.8 µM)
C[C@@H](O)[C@@H]1NC(=O)[C@H](CCN)NC(=O)[C@H](CCN)NC(=O)[C@H](Cc2ccccc2)NC(=O)[C@@H](Cc2ccccc2)NC(=O)[C@H](CCN)NC(=O)[C@@H](NC(=O)[C@H](CCN)NC(=O)[C@@H](NC(=O)[C@H](CCN)NC(=O)c2ccc(-c3ccccc3)cc2)[C@@H](C)O)CCNC1=O	8 µg/mL (≈ 6.26 µM)	8 µg/mL (≈ 6.26 µM)	8 µg/mL (≈ 6.26 µM)	8 µg/mL (≈ 6.26 µM)	4 µg/mL (≈ 3.13 µM)
CCCCCCCC(=O)N[C@@H](CCN)C(=O)N[C@H](C(=O)N[C@@H](CCN)C(=O)N[C@H]1CCNC(=O)[C@H]([C@@H](C)O)NC(=O)[C@H](CCN(C)C)NC(=O)[C@H](CCN)NC(=O)[C@H](CC(C)C)NC(=O)[C@@H](CC(C)C)NC(=O)[C@H](CCN)NC1=O)[C@@H](C)O	16 µg/mL (≈ 13.5 µM)	> 16 µg/mL	> 16 µg/mL	> 16 µg/mL	> 16 µg/mL
CCCCCCCCC(CCCCCCCC)C(=O)N[C@@H](CCN)C(=O)N[C@H](C(=O)N[C@@H](CCN)C(=O)N[C@H]1CCNC(=O)[C@H]([C@@H](C)O)NC(=O)[C@H](CCN)NC(=O)[C@H](CCN)NC(=O)[C@H](CC(C)C)NC(=O)[C@@H](CC(C)C)NC(=O)[C@H](CCN)NC1=O)[C@@H](C)O	> 16 µg/mL	> 16 µg/mL	> 16 µg/mL	> 16 µg/mL	> 16 µg/mL
CCCCCCCC(=O)N[C@@H](CCN(C)C)C(=O)N[C@H](C(=O)N[C@@H](CCN)C(=O)N[C@H]1CCNC(=O)[C@H]([C@@H](C)O)NC(=O)[C@H](CCN)NC(=O)[C@H](CCN)NC(=O)[C@H](CC(C)C)NC(=O)[C@@H](CC(C)C)NC(=O)[C@H](CCN)NC1=O)[C@@H](C)O	4 µg/mL (≈ 3.38 µM)	8 µg/mL (≈ 6.76 µM)	> 16 µg/mL	4 µg/mL (≈ 3.38 µM)	8 µg/mL (≈ 6.76 µM)
C[C@@H](O)[C@@H]1NC(=O)[C@H](CCN)NC(=O)[C@H](CCN)NC(=O)[C@H](Cc2ccccc2)NC(=O)[C@@H](Cc2ccc(-c3ccccc3)cc2)NC(=O)[C@H](CCN)NC(=O)[C@@H](NC(=O)[C@H](CCN)NC(=O)[C@@H](NC(=O)[C@H](CCN)NC(=O)c2cccc(-c3ccccc3)c2)[C@@H](C)O)CCNC1=O	16 µg/mL (≈ 11.8 µM)	16 µg/mL (≈ 11.8 µM)	16 µg/mL (≈ 11.8 µM)	> 16 µg/mL	16 µg/mL (≈ 11.8 µM)
C[C@@H](O)[C@@H]1NC(=O)[C@H](CCN)NC(=O)[C@H](CCN)NC(=O)[C@H](Cc2ccccc2)NC(=O)[C@@H](Cc2ccc(-c3ccccc3)cc2)NC(=O)[C@H](CCN)NC(=O)[C@@H](NC(=O)[C@H](CCN)NC(=O)[C@@H](NC(=O)[C@H](CCN)NC(=O)c2ccccc2)[C@@H](C)O)CCNC1=O	8 µg/mL (≈ 6.26 µM)	8 µg/mL (≈ 6.26 µM)	8 µg/mL (≈ 6.26 µM)	8 µg/mL (≈ 6.26 µM)	4 µg/mL (≈ 3.13 µM)
